Common to all, as to experiment: growth of human tumour cells (NCI), 48 h
Assay [1] concerns CAKI-1 renal.
Assay [2] concerns CCRF-CEM leukemia.
Assay [3] relates to EKVX NSCLC.
Assay [4] deals with HCT-15 colon.
The subject of assay [5] is OVCAR-4 ovarian.
The test system of assay [6] is RPMI-8226 leukemia.
Assay [7] relates to RXF 393 renal.
The test system of assay [8] is SK-MEL-2 melanoma.
The test system of assay [9] is SNB-19 CNS.
Assay [10] concerns BT-549 breast.

“And” between values parts separate entries of the source, which are not always exact repeats. Equal entries are not always repeated.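 Dose response: 5 concentrations. Exposure: 48 h. Format: 96-well plates. Endpoint: linear interpolation; highest concentration if not reached. GI50 = concentration required for 50% inhibition of growth. TGI marks complete inhibition of growth.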

Turning to `CCOC(=O)C1CCn2c(nc3c2c(=O)n(C)c(=O)n3C)S1` (configuration not stated), the TGI in assay [1], in assay [2], in [3], in assay [4], in assay [5] and in [6] was above 100 µM each time. In addition, the TGI in assay [7], in assay [8] and in assay [9] was above 100 µM throughout.
As for `CCC(C)C1NC(=O)C2CCCN2C(=O)C(CC2CO2)OC(=O)CCNC(=O)C(C)N(C)C(=O)C(C(C)C)N(C)C1=O` (configuration not stated), the TGI in assay [10], in assay [1], in [3], in [4], in [5] and in assay [7] was above 100 µM in each case. In addition, the TGI is 0.0341 µM in assay [8] and above 100 µM in [9].
As to `CC1(C)CCC2(C(=O)OC3OC(CO)C(O)C(O)C3O)CCC3(C)C(=CCC4C5(C)CCC(OC6OC(CO)C(O)C(O)C6O)C(C)(C)C5CCC43C)C2C1` (configuration not stated), the TGI is above 25 µM in assay [10]; above 25 µM in assay [1]; 14 µM in [2]; above 25 µM in [3]; above 25 µM in assay [4]; above 25 µM in assay [5]. The TGI in assay [6] was 10.7 µM; in [7], above 25 µM; in assay [8], 14.8 µM; in [9], above 25 µM.
With `CC(=O)OC1CC(O)CC2=CCC3C4CCC(C(C)(O)C(O)CC5COC(=O)C5C)C4(C)CCC3C21C` (configuration not stated), the TGI in assay [10], in [1], in assay [2], in assay [3], in assay [4] and in assay [5] was above 25 µM throughout. Further, the TGI in assay [6], in assay [7], in assay [8] and in [9] was above 25 µM each time.
`O=C1c2cc3c(cc2-c2c1c1ccc(Cl)cc1c(=O)n2C[C@H](O)[C@@H](O)[C@H](O)CO)OCO3`: the GI50 in assay [10] is 0.0301 µM; in [1] it was 0.0325 µM; in assay [2] it was below 0.01 µM; in assay [3], 0.202 µM; in [4], 0.143 µM; in assay [5], 0.177 µM. Besides, the GI50 was 0.24 µM in assay [6], 0.0536 µM in [7], 0.194 µM in assay [8] and 0.0216 µM in [9]. Besides, the TGI in [10] is 1.36 µM; in assay [1], 0.4 µM; in assay [2], 17 µM; in [3] it was 11.2 µM; in assay [4], 1.66 µM; in assay [5], above 100 µM. Further, the TGI in assay [6] was 0.989 µM; in [7] it was 0.258 µM; in assay [8] it was 0.432 µM; in assay [9] it was above 100 µM.
In the case of `CCOC(=O)/C(=C\NCC(OCC)OCC)c1nc2ccccc2[nH]1`, the TGI was 62.4 µM in assay [10]; above 100 µM in assay [1]; above 100 µM in assay [2]; 95 µM in assay [3]; 51.8 µM in [4]; above 100 µM in assay [5]. In addition, the TGI is 39.5 µM in [6], above 100 µM in [7], 44.7 µM in assay [8] and above 100 µM in assay [9].
On to `COC(=O)C1C(O)CCC2CN3CCc4c([nH]c5cccc(OC)c45)C3CC21` (configuration not stated), for which the TGI in assay [10], in assay [1], in assay [2], in assay [3], in assay [4] and in [5] was above 100 µM in each case. For the same molecule, the TGI in assay [6], in assay [7], in assay [8] and in assay [9] was above 100 µM each time.
As to `O=S(=O)(/N=C(\NO)Nc1ccc(Cl)cc1)c1ccc(S(=O)(=O)c2ccccc2)s1`, the TGI in assay [10] was 44.7 µM; in assay [1], 91.4 µM; in assay [2], 51.6 µM; in [3], 51.5 µM; in [4], above 100 µM; in assay [5], 93.8 µM. Besides, the TGI in [6] is 35.8 µM; in assay [7], 87.7 µM; in [8], 37.4 µM; in assay [9], above 100 µM.
Turning to `Cc1cc(O)c(C(C)C)cc1CN1CCCCC1`, the TGI in assay [10], in [1], in [2], in assay [3], in assay [4] and in assay [5] was above 100 µM each time. The TGI in assay [6], in [7] and in [9] was above 100 µM throughout.
For `C/C(=N\NC(=O)c1cccnc1)c1cccc(/C(C)=N/NC(=O)c2cccnc2)n1`, the results for the GI50 in [2] and in assay [8] were 3.49 µM and 2.33 µM, respectively. The TGI in assay [2] is above 100 µM; in assay [3], above 100 µM; in assay [4], above 100 µM; in assay [8] it was 7.02 µM; in [9] it was above 100 µM.
As to `O=S(=O)(O)c1cccc2c(N=Nc3c(O)ccc4ccccc34)cccc12`, the TGI in assay [10], in [1], in [2], in assay [3], in assay [4] and in assay [5] was above 100 µM in each case. Further, the TGI in [6], in [7], in [8] and in [9] was above 100 µM in each case.
Consider `CS(=O)(=O)c1nc(-c2cc3c(c(S(C)(=O)=O)n2)CCCC3)cc2c1CCCC2`, for which the TGI in [10] is above 82.2 µM; in assay [1], above 59.1 µM; in assay [2] it was above 100 µM; in [3], above 100 µM; in assay [4], above 100 µM; in assay [5] it was above 100 µM. For the same molecule, the TGI in assay [6] is above 100 µM; in assay [7] it was above 74.9 µM; in assay [8] it was above 100 µM; in [9] it was above 100 µM.
On to `O=[N+]([O-])c1ccc2c(c1)c(N=NC(=S)NC1CCCCC1)c(O)n2CN1CCOCC1`, for which the TGI in assay [10] came to 20.8 µM; in assay [1], 14.3 µM; in [2], 2.75 µM; in assay [3] it was 14.1 µM; in assay [4] it was 15.6 µM; in [5] it was 17.9 µM. Also, the TGI in [6] is 52.6 µM; in [7], 29 µM; in assay [8] it was 25.9 µM; in assay [9] it was 22.2 µM.
As to `N[C@H]1CCN(c2c(F)cc3c(=O)c(C(=O)O)cn4c3c2Oc2cc3c(ccc5ccccc53)cc2-4)C1`, the TGI in assay [10] was above 100 µM; in [1], above 100 µM; in [3] it was 7.21 µM; in assay [4], above 100 µM; in assay [5] it was above 100 µM; in assay [6], 4 µM. Also, the TGI in [7] is above 100 µM; in assay [8], 43.5 µM; in assay [9], above 100 µM.
Turning to `NCCNc1nc(N2CCCC2)c2nc(Cl)c(NCc3ccccc3)nc2n1`, the TGI in assay [10] came out at 4.12 µM; in assay [1] it was 15.2 µM; in assay [2] it was 6.87 µM; in [3] it was 4.36 µM; in assay [4], 3.84 µM; in assay [5], 5.3 µM. Moreover, the TGI in assay [6] is 3.84 µM; in assay [7] it was 2.91 µM; in [8], 3.37 µM; in assay [9], 3.91 µM.
Consider `CC(Sc1ccccc1)C(CO)(CO)[N+](=O)[O-]` (configuration not stated), for which the TGI in [1] turned out to be 33.1 µM; in [2], 7.51 µM; in [3], 34.1 µM; in assay [4], 30.6 µM; in [5], 32.1 µM; in assay [6], 49.2 µM. Also, the TGI turned out to be 31.3 µM in assay [7], 54 µM in [8] and 43.8 µM in assay [9].
In the case of `CC[C@@]1(O)C(=O)OCc2c1cc1n(c2=O)Cc2c-1nc1ccc(O)cc1c2CC[Si](C)(C)C`, the TGI in assay [10] is 4.09 µM; in assay [2], 0.464 µM; in assay [4], 95 µM; in assay [5], 0.0538 µM; in assay [6], 0.348 µM; in [7] it was 0.0494 µM and 0.0625 µM. Moreover, the TGI was 0.576 µM and 1.17 µM in assay [8]; above 100 µM in assay [9]. In addition, the GI50 in assay [3] was 0.0181 µM; in assay [8], 0.0742 µM.
In the case of `COc1ccc(N=C2C(=O)C3=C(OC(C)(C)CC3)c3ccccc32)cc1`, the TGI in assay [10] is 2.58 µM; in assay [1], 1.84 µM; in assay [2], 4.43 µM; in assay [3] it was 1.86 µM; in assay [4], 10.8 µM; in assay [5] it was 1.51 µM. For the same molecule, the TGI in [7] came out at 2.43 µM; in assay [8] it was 2.46 µM; in assay [9], 2.36 µM.
Regarding `CN1C2CCC1C(C(O)c1ccccc1[N+](=O)[O-])C(=O)C2` (configuration not stated), the TGI in assay [10], in assay [1], in assay [2], in assay [3], in assay [4] and in [5] was above 100 µM in each case. Also, the TGI in assay [6], in [8] and in assay [9] was above 100 µM in each case.
As for `COC(=O)C1C(C)N1C` (configuration not stated), the TGI in assay [2], in [3], in assay [4], in assay [5], in assay [6] and in assay [7] was above 100 µM throughout. Also, the TGI in [9] was above 100 µM.
For `CC(=O)N(C)c1ccc2c(ccc[n+]2[O-])c1[N+](=O)[O-]`, the TGI in assay [1], in assay [2], in [3], in assay [4], in [5] and in assay [6] was above 100 µM in each case. The TGI in [7] and in [8] was above 100 µM throughout.
Turning to `O=[n+]1c2c(n([O-])c3ccccc31)-c1cccc3cccc-2c13`, the TGI in assay [2], in assay [4], in assay [5], in assay [7] and in [9] was above 100 µM in each case.
Take `Nc1ccc2c(c1)C(=O)N(O)C2=O`: the TGI in [2], in assay [3], in assay [4], in assay [5], in assay [7] and in [9] was above 100 µM each time.
On to `CN(C)CCn1c(=O)c2ccc3c4c(nn3CCN(C)C)c3cc(N)ccc3n(c1=O)c24`, for which the TGI came out at 0.78 µM in assay [10]; 1.47 µM in assay [1]; 0.237 µM in assay [3]; 0.222 µM in [4]; 0.0511 µM in [5]; 60.7 µM in assay [6]. In addition, the TGI worked out at 0.173 µM in assay [7], 0.089 µM in assay [8] and 0.455 µM in assay [9].
With `C[C@]12CC[C@@H]3c4ccccc4CC[C@H]3[C@@H]1CC[C@@H]2O`, the TGI in assay [2], in [3], in assay [4], in assay [6], in [7] and in [9] was above 100 µM each time.
Turning to `CC1(C)CC(=O)C2=C(C1)NC(SSC1=C(C#N)C(c3ccc(F)cc3)C3=C(CC(C)(C)CC3=O)N1)=C(C#N)C2c1ccc(F)cc1` (configuration not stated), the GI50 in assay [10] is 30 µg/mL; in assay [1], 29.5 µg/mL; in [2], 34.1 µg/mL; in [3] it was 35.5 µg/mL; in [4], 30.3 µg/mL; in assay [5] it was 27.7 µg/mL. For the same molecule, the GI50 in assay [6] was 50.5 µg/mL; in assay [7], 21.4 µg/mL; in assay [9] it was 77.1 µg/mL. Besides, the TGI in assay [10] stood at 55.4 µg/mL; in assay [1], 50.7 µg/mL; in assay [2], 136 µg/mL; in assay [3], 78.5 µg/mL; in assay [4], 64 µg/mL; in [5], 52.7 µg/mL. Also, the TGI in assay [6] is 118 µg/mL; in [7] it was 41.1 µg/mL; in assay [9], above 150 µg/mL.
For `CN(CCCNC(=O)c1cn(C)c2c1ccc1cc(Cl)c(Cl)cc12)CCCNC(=O)c1cn(C)c2c1ccc1cc(Cl)c(Cl)cc12`, the TGI in assay [10] was found to be 33.3 µM; in [1], 27.1 µM; in assay [2], 38.7 µM; in assay [3] it was 31.5 µM; in assay [4], 27.5 µM; in assay [5], 25.3 µM. Besides, the TGI turned out to be 16.7 µM in assay [7], 31.5 µM in assay [8] and 17.9 µM in assay [9].

The record behind these values is PubChem BioAssay (NCI).
